According to patent EP4755886A1 (Chengdu Chipscreen Pharmaceutical Ltd., priority 2023, dated 2025):

How the values were obtained:
[1] = system: MTAP^-/- HCT-116 cells; assay: Cell proliferation (MTS), MTAP-/- HCT-116; assay type: cell-based, human; details: for Selectivity: HCT116 WT IC50 relative to HCT116 MTAP-/- IC50; for IC50: Homo sapiens, 240 h, MTAP-/- HCT-116, 10 days with compound, MTS reading, read-out: IC50 HCT116 MTAP-/-
Excerpt: The colon cancer cell strain HCT-116 (purchased from Nanjing Cobioer) was co-transfected with the gene editing tool CRISPR/Cas9 and sgRNA, and the MTAP^-/- HCT-116 cell strain with biallelic inactivation of MTAP was obtained by assays such as Western Blotting and Sanger sequencing. The MTAP^-/- HCT-116 cell strain was used for compound selectivity screening and evaluation based on the synergistic mechanism of MTAP deletion and PRMT5, including a symmetric dimethylarginine (SDMA) level test, a cell proliferation test, and the like.
On day 0, MTAP^-/- HCT-116 cells or wild-type HCT-116 cells were added to a 96-well cell culture plate (Corning, 3599) at 100 cells/well, and the plate was incubated in an incubator at 37 °C with 5% CO2. The compound was diluted in a 3-fold gradient with DMSO (Sigma, D5879) (initial concentration: 20 µM, 3-fold dilution, 8 concentration points in total). On day 1, the compound was diluted to multiple concentration points, and the cells were treated separately and incubated in the incubator at 37 °C with 5% CO2 for another 10 days. On Day 11, 20 µL of MTS (CellTiter 96® AQueous One Solution Cell Proliferation Assay) (Promega, G3581) was added to each well. […] In the formula, Y represents the inhibition rate, X represents the logarithm of the compound concentration, Top represents the maximum response (the inhibition rate at the maximum compound concentration), Bottom represents the baseline response (the inhibition rate where the compound concentration was 0), Hill Slope represents the slope of the IC50 curve, and IC50 represents the half maximal inhibitory concentration.

[2] = system: wild-type HCT-116 cells; assay: Cell proliferation (MTS), wild-type HCT-116; assay type: cell-based; details: Homo sapiens, 240 h; wild-type HCT-116, 10 days with compound, MTS reading; read-out: IC50 HCT116 WT
Description: MTAP^-/- HCT-116 and wild-type HCT-116 cell strains were cultured in complete medium McCoy's 5A (Gibco, 16600082)/10% FBS (Gibco, 10099141C)/1% p/s (Gibco, 15140122) to evaluate the enhanced inhibitory effect of the compounds against the proliferation selectivity of MTAP^-/- HCT-116 cells. On day 0, MTAP^-/- HCT-116 cells or wild-type HCT-116 cells were added to a 96-well cell culture plate (Corning, 3599) at 100 cells/well, and the plate was incubated in an incubator at 37 °C with 5% CO2. The compound was diluted in a 3-fold gradient with DMSO (Sigma, D5879) (initial concentration: 20 µM, 3-fold dilution, 8 concentration points in total). On day 1, the compound was diluted to multiple concentration points, and the cells were treated separately and incubated in the incubator at 37 °C with 5% CO2 for another 10 days. On Day 11, 20 µL of MTS (CellTiter 96® AQueous One Solution Cell Proliferation Assay) (Promega, G3581) was added to each well. […] In the formula, Y represents the inhibition rate, X represents the logarithm of the compound concentration, Top represents the maximum response (the inhibition rate at the maximum compound concentration), Bottom represents the baseline response (the inhibition rate where the compound concentration was 0), Hill Slope represents the slope of the IC50 curve, and IC50 represents the half maximal inhibitory concentration. Table 1. IC50 (µM)

Row | IC50 [1] | IC50 [2] | SMILES | Selectivity [1]
1 | 0.007 µM | 0.405 µM | CCn1cc(C#Cc2ccc3c(c2)OCC3N(C)C(=O)c2cc3c(cc2F)nc(N)c2cnn(C)c23)cn1 (stereo not shown) [Compound 17, 4-amino-N-(6-((1-ethyl-1H-pyrazol-4-yl)ethynyl)-2,3-dihydrobenzofuran-3-yl)-7-f luoro-N,1-dimethyl-1H-pyrazolo[4,3-c]quinoline-8-carboxamide] | 58
2 | 0.003 µM | 0.263 µM | CN(C(=O)c1cc2c(cc1F)nc(N)c1cnn(C)c12)[C@@H]1COc2cc(C#Cc3cnn(C4CCC4)c3)ccc21 [Compound 89A, (S)-4-amino-N-(6-((1-cyclobutyl-1H-pyrazol-4-yl)ethynyl)-2,3-dihydrobenzofuran-3-yl)-7-fluoro-N,1-dimethyl-1H-pyrazolo [4,3-c] quinoline-8-carboxamide] | 88
3 | 0.0129 µM | 1.8 µM | CN(C(=O)c1ccc2nc(N)c3cnn(C)c3c2c1)C1COc2cc(C#Cc3cnn(C)c3)ccc21 (stereo not shown) [Compound 1, 4-amino-N,1-dimethyl-N-(6-((1-methyl-1H-pyrazol-4-yl)ethynyl)-2,3-dihydrobenzofuran-3-yl)-1H-pyrazolo[4,3-c]quinoline-8-carboxamide] | 140
4 | 0.0039 µM | 0.512 µM | CN(C(=O)c1cc2c3c(c(N)nc2cc1Cl)COC3)[C@@H]1COc2cc(C#Cc3ccnn3C)ccc21 [Compound 78A, (S)-4-amino-7-chloro-N-methyl-N-(6-((1-methyl-1H-pyrazol-5-yl)ethynyl)-2,3-dihydrobenzofuran-3-yl)-1,3-dihydrofuro[3,4-c]quinoline-8-carboxamide] | 131
5 | 0.003 µM | 0.165 µM | CN(C(=O)c1cc2c(cc1F)nc(N)c1cnn(C)c12)C1COCc2cc(C#Cc3cnn(C4CC4)c3)ccc21 (stereo not shown) [Compound 85, 4-amino-N-(7-((1-cyclopropyl-1H-pyrazol-4-yl)ethynyl)isochroman-4-yl)-7-fluoro -N,1-dimethyl-1H-pyrazolo[4,3-c]quinoline-8-carboxamide] | 55
6 | 0.0087 µM | 1.29 µM | CC(C)n1cc(C#Cc2ccc3c(c2)OC[C@H]3N(C)C(=O)c2ccc3nc(N)c4cnn(C)c4c3c2)cn1 [Compound 19A, (S)-4-amino-N-(6-((1-isopropyl-1H-pyrazol-4-yl)ethynyl)-2,3-dihydrobenzofuran-3-yl)-N,1-dimethyl-1H-pyrazolo[4,3-c]quinoline-8-carboxamide] | 149
7 | 0.0009 µM | 0.0977 µM | CN(C(=O)c1cc2c(cc1Cl)nc(N)c1cnn(C)c12)C1COc2cc(C#Cc3cnn(C)c3)ccc21 (stereo not shown) [Compound 9, 4-amino-7-chloro-N,1-dimethyl-N-(6-((1-methyl-1H-pyrazol-4-yl)ethynyl)-2,3-dihydrobenzofuran-3-yl)-1H-pyrazolo[4,3-c]quinoline-8-carboxamide] | 109
8 | 0.005 µM | 0.864 µM | CCn1cc(C#Cc2ccc3c(c2)OC[C@H]3N(C)C(=O)c2cc3c4c(c(N)nc3cc2Cl)COC4)cn1 [Compound 69A, (S)-4-amino-7-chloro-N-(6-((1-ethyl-1H-pyrazol-4-yl)ethynyl)-2,3-dihydrobenzof uran-3-yl)-N-methyl-1,3-dihydrofuro[3,4-c]quinoline-8-carboxamide] | 173
9 | 0.002 µM | 0.304 µM | [2H]C([2H])([2H])N(C(=O)c1cc2c(cc1F)nc(N)c1cnn(C)c12)[C@@H]1COc2cc(C#Cc3cnn(C)c3)ccc21 [Compound 79A, (S)-4-amino-7-fluoro-1-methyl-N-(methyl-D3)-N-(6-((1-methyl-1H-pyrazol-4-yl)ethynyl)-2,3-dihydrobenzofuran-3-yl)-1H-pyrazolo[4,3-c]quinoline-8-carboxamide] | 152
10 | 0.0138 µM | 1.78 µM | CN(C(=O)c1cc2c(cc1F)nc(N)c1cnn(C)c12)C1COc2cc(C#Cc3cnn(C(F)F)c3)ccc21 (stereo not shown) [Compound 41, 4-amino-N-(6-((1-(difluoromethyl)-1H-pyrazol-4-yl)ethynyl)-2,3-dihydrobenzofuran-3-yl)-7-fluoro-N,1-dimethyl-1H-pyrazolo[4,3-c]quinoline-8-carboxamide] | 129
11 | 0.003 µM | 0.467 µM | CN1CCn2c(C#Cc3ccc4c(c3)OCC4N(C)C(=O)c3cc4c(cc3F)nc(N)c3cnn(C)c34)cnc2C1 (stereo not shown) [Compound 46, 4-amino-7-fluoro-N,1-dimethyl-N-(6-((7-methyl-5,6,7,8-tetrahydroimidazo[1,2-a]pyrazin-3-yl)ethynyl)-2,3-dihydrobenzofuran-3-yl)-1H-pyrazolo[4,3-c]quinoline-8-carboxamide] | 156
12 | 0.0137 µM | 1.73 µM | CN(C(=O)c1cc2c(cc1F)nc(N)c1cnn(C)c12)C1COc2cc(C#Cc3ccnn3C)ccc21 (stereo not shown) [Compound 36, 4-amino-7-fluoro-N,1-dimethyl-N-(6-((1-methyl-1H-pyrazol-5-yl)ethynyl)-2,3-dihydrobenzofuran-3-yl)-1H-pyrazolo[4,3-c]quinoline-8-carboxamide] | 126
13 | 0.014 µM | 0.674 µM | Cc1c(C#Cc2ccc3c(c2)OC[C@H]3N(C)C(=O)c2cc3c4c(c(N)nc3cc2Cl)COC4)cnn1C1CC1 [Compound 71A, (S)-4-amino-7-chloro-N-(6-((1-cyclopropyl-5-methyl-1H-pyrazol-4-yl)ethynyl)-2,3-dihydrobenzofuran-3-yl)-N-methyl-1,3-dihydrofuro[3,4-c]quinoline-8-carboxamide] | 48
14 | 0.005 µM | 0.217 µM | Cc1ccc(C#Cc2ccc3c(c2)OC[C@H]3N(C)C(=O)c2cc3c(cc2Cl)nc(N)c2cnn(C)c23)cn1 [Compound 55A, (S)-4-amino-7-chloro-N,1-dimethyl-N-(6-((6-methylpyridin-3-yl)ethynyl)-2,3-dihydrobenzofuran-3-yl)-1H-pyrazolo[4,3-c]quinoline-8-carboxamide] | 43
15 | 0.002 µM | 0.085 µM | CN(C(=O)c1cc2c(cc1Cl)nc(N)c1cnn(C)c12)[C@@H]1COc2cc(C#Cc3cnn(C(F)F)c3)ccc21 [Compound 67A, (S)-4-amino-7-chloro-N-(6-((1-(difluoromethyl)-1H-pyrazol-4-yl)ethynyl)-2,3-dihydrobenzofuran-3-yl)-N,1-dimethyl-1H-pyrazolo[4,3-c]quinoline-8-carboxamide] | 43
16 | 0.004 µM | 0.307 µM | Cc1c(C#Cc2ccc3c(c2)OCC3N(C)C(=O)c2cc3c(cc2F)nc(N)c2cnn(C)c23)cnn1C (stereo not shown) [Compound 23, 4-amino-N-(6-((1,5-dimethyl-1H-pyrazol-4-yl)ethynyl)-2,3-dihydrobenzofuran-3-yl)-7-fluoro-N,1-dimethyl-1H-pyrazolo[4,3-c]quinoline-8-carboxamide] | 77
17 | 0.0023 µM | – | CCN(C(=O)c1cc2c(cc1Cl)nc(N)c1cnn(C)c12)C1COc2cc(C#Cc3cnn(C)c3)ccc21 (stereo not shown) [Compound 28, 4-amino-7-chloro-N-ethyl-1-methyl-N-(6-((1-methyl-1H-pyrazol-4-yl)ethynyl)-2,3-dihydrobenzofuran-3-yl)-1H-pyrazolo[4,3-c]quinoline-8-carboxamide] | –
